# Experimental data as given in paper PMC11435058, “Synthesis of New Thiazole-Privileged Chalcones as Tubulin Polymerization Inhibitors with Potential Anticancer Activities” (Pharmaceuticals, 2024).
# Columns and labels:
# [1] = test system: SF-539; assay: NCI-60 anticancer screen (SRB; single dose and five doses); conditions: Homo sapiens, SF-539, 48 h, read-out: Growth Percentage
# [2] = test system: U251; assay: as above; conditions: Homo sapiens, U-251, 48 h, read-out: Growth Percentage
# [3] = test system: SK-OV-3; assay: as above; conditions: Homo sapiens, SK-OV-3, 48 h, read-out: Growth Percentage
# [4] = test system: TK-10; assay: as above; conditions: Homo sapiens, TK-10, 48 h, read-out: Growth Percentage
# [5] = test system: OVCAR-3; assay: cells; conditions: Homo sapiens, OVCAR-3, 48 h, read-out: Growth Percentage
# [6] = test system: NCI-H460; assay: NCI-60 anticancer screen (SRB; single dose and five doses); conditions: Homo sapiens, NCI-H460, 48 h, read-out: Growth Percentage
# [7] = test system: A498; assay: as above; conditions: Homo sapiens, A498, 48 h, read-out: Growth Percentage, A498; dose of 10 μM
# [8] = test system: SN12C; assay: as above; conditions: Homo sapiens, 48 h, read-out: Growth Percentage
# [9] = test system: MDA-MB-435; assay: as above; conditions: Homo sapiens, MDA-MB-435, 48 h, read-out: Growth Percentage
# [10] = test system: UO-31; assay: as above; conditions: Homo sapiens, UO-31, 48 h, read-out: Growth Percentage
# [11] = test system: HCT-116; assay: as above; conditions: Homo sapiens, HCT-116, 48 h, read-out: Growth Percentage
# [12] = test system: M14; assay: as above; conditions: Homo sapiens, M14, 48 h, read-out: Growth Percentage
# [13] = test system: NCI-H522; assay: as above; conditions: Homo sapiens, NCI-H522, 48 h, read-out: Growth Percentage
# [14] = test system: SNB-75; assay: as above; conditions: Homo sapiens, SNB-75, 48 h, read-out: Growth Percentage
# [15] = test system: SW-620; assay: as above; conditions: Homo sapiens, SW-620, 48 h, read-out: Growth Percentage
# [16] = test system: SK-MEL-28; assay: as above; conditions: Homo sapiens, SK-MEL-28, 48 h, read-out: Growth Percentage
# [17] = test system: ACHN; assay: as above; conditions: Homo sapiens, 48 h, read-out: Growth Percentage
# [18] = test system: SNB-19; assay: cells; conditions: Homo sapiens, SNB-19, 48 h, read-out: Growth Percentage
# [19] = test system: OVCAR-4; assay: NCI-60 anticancer screen (SRB; single dose and five doses); conditions: Homo sapiens, OVCAR-4, 48 h, read-out: Growth Percentage
# [20] = test system: OVCAR-8; assay: as above; conditions: Homo sapiens, OVCAR-8, 48 h, read-out: Growth Percentage
# [21] = test system: NCI-H23; assay: as above; conditions: Homo sapiens, NCI-H23, 48 h, read-out: Growth Percentage
# [22] = test system: MDA-MB-468; assay: as above; type: cell-based, human; conditions: Homo sapiens, 48 h; MDA-MB-468; dose of 10 μM; read-out: Growth Percentage
# Protocol: The methodology of the NCI anticancer screening has been described in detail elsewhere (http://www.dtp.nci.nih.gov). For detailed information, see Appendix A in the Supplementary Materials.
# 4.2.1. Screening of the anticancer activity against a panel of 60 cell Lines.
# The methodology of the NCI anticancer screening has been described in detail elsewhere (http://www.dtp.nci.nih.gov.) Briefly, the primary anticancer assay was performed at approximately 60 human tumor cell lines panel derived from nine neoplastic diseases, in accordance with the protocol of the Drug Evaluation Branch, National Cancer Institute, Bethesda. Tested compounds were added to the culture at a single concentration (10μM) and the cultures were incubated for 48 h. End -point determinations were made with a protein binding dye, SRB. Results for each tested compound was reported as the percent of growth of the treated cells when compared to the untreated control cells. The percentage growth was evaluated spectrophotometrically versus controls not treated with test agents. […]
# [23] = test system: HCC-2998; assay: as above; conditions: Homo sapiens, HCC 2998, 48 h, read-out: Growth Percentage
# [24] = test system: EKVX; assay: as above; conditions: Homo sapiens, 48 h, read-out: Growth Percentage
# [25] = test system: 786-0; assay: as above; conditions: Homo sapiens, 786-0, 48 h, read-out: Growth Percentage
Compound,activity at 10 µM [1] [%],activity at 10 µM [2] [%],activity at 10 µM [4] [%],activity at 10 µM [5] [%],activity at 10 µM [6] [%],activity at 10 µM [7] [%],activity at 10 µM [8] [%],activity at 10 µM [9] [%],activity at 10 µM [10] [%],activity at 10 µM [11] [%],activity at 10 µM [12] [%],activity at 10 µM [13] [%],activity at 10 µM [14] [%],activity at 10 µM [15] [%],activity at 10 µM [16] [%],activity at 10 µM [17] [%],activity at 10 µM [18] [%],activity at 10 µM [19] [%],activity at 10 µM [20] [%],activity at 10 µM [21] [%],also measured
"COc1cccc(/C=C/C(=O)c2sc(=S)[nH]c2C)c1OC [2m, (E)-3-(2,3-Dimethoxyphenyl)-1-(4-Methyl-2-Thioxo-2,3-Dihydrothiazol-5-yl)Prop-2-En-1-One]",22.7,20.3,64.5,24.3,40.1,109,45,51.9,53.7,46.5,54,32.9,50.4,47.9,70,52.5,37.2,62.2,44.6,86.5,activity at 10 µM [3]: 85.6%; activity at 10 µM [22]: 41.1%; activity at 10 µM [23]: 79.8%; activity at 10 µM [24]: 54.5%
"COc1ccc(/C=C/C(=O)c2sc(=S)[nH]c2C)cc1 [2l, (E)-3-(4-Methoxyphenyl)-1-(4-Methyl-2-Thioxo-2,3-Dihydrothiazol-5-yl)Prop-2-En-1-One]",69.8,62.3,80.9,66.9,85.6,120,74.9,63.9,49,76,87.5,61.4,98,75.3,102,85.6,75.6,72.3,76.9,81.8,activity at 10 µM [25]: 78.1%; activity at 10 µM [22]: 15.1%; activity at 10 µM [23]: 101%; activity at 10 µM [24]: 84.8%
